Converted amounts (≈) assume the structure as drawn.
How the values were obtained:
physchem = assay type: physicochemical; conditions: for solubility: 25 °C, thermodynamic from solid; for Solubility, water: pH 4
Protocol: At 25±2°C, 100mL (which may be scaled down) solvent was added in a beaker. A certain mass of crystal forms A, B, C and D of tembotrione were weighted (to ensure insufficient dissolution, tembotrione may be weighted more than once if necessary and the total mass was calculated). The solute was gradually added, continuously stirred and sufficiently dissolved until the solution was exactly saturated (if there was solid precipitation, it was filtrated out and dried, and put back to the undissolved solid). Total mass of the undissolved solid was weighted to calculate the mass of the dissolved solid in 100mL (100g) solvent, i.e., the solubility of the solid in the solvent at the temperature. In the present disclosure, solubility of crystal forms A, B, C and D of tembotrione in several common solvents were tested, and the results were shown in Table 2. Table 2 Solubility of crystal forms A, B, C and D of tembotrione in different solvents

[1] = Dissolution rate test (suspension in methanol/water with temperature cycling, decomposition after 14 days); assay type: physicochemical; conditions: suspended in methanol : water 1 : 5 (volume), 10-30° C, 14 days later; for decomposition rate: temperature periodically changed at 0.5K/min
Protocol: Further, in the present disclosure, the dissolution rate of crystal from D of tembotrione was tested as following: the crystal form D of tembotrione was suspended in a mixture of methanol and water (the volume ratio of methanol : water was 1 : 5) at a temperature of 10-30° C, and the temperature was changed at a rate of 0.5K/min. […] Crystal forms A, B, C and D of tembotrione were suspended in a mixture of methanol and water (the volume ratio of methanol to water was 1 : 5) at a temperature of 10-30° C, and the temperature was periodically changed at a rate of 0.5K/min.

SMILES | solubility (physchem; organic solvent or mixture, methanol) [µg/mL] | solubility (physchem; organic solvent or mixture, toluene) [µg/mL] | solubility (physchem; pH 4, aqueous buffer, water) [µg/mL] | decomposition rate [1] [%] | Solubility, methanol (physchem) [g/L] | Solubility, toluene (physchem) [g/L] | Solubility, water (physchem) [g/L] | dissolution rate ([1]; 0.5K/min)
CS(=O)(=O)c1ccc(C(=O)C2C(=O)CCCC2=O)c(Cl)c1COCC(F)(F)F [crystal form A, 2-[2-chloro-4-methylsulfonyl-3-(2,2,2-trifluoroethoxymethyl)benzoyl]cyclohexane-1,3-dione] | 8600 (≈ 19.5 mM) | 80000 (≈ 181 mM) | 260 (≈ 0.59 mM) | 0.1 |  |  |  | 
CS(=O)(=O)c1ccc(C(=O)C2C(=O)CCCC2=O)c(Cl)c1COCC(F)(F)F [crystal form B, 2-[2-chloro-4-methylsulfonyl-3-(2,2,2-trifluoroethoxymethyl)benzoyl]cyclohexane-1,3-dione] |  |  |  | 0.4 | 8.8 (≈ 20 mM) | 81.0 (≈ 184 mM) | 0.28 (≈ 0.635 mM) | 
CS(=O)(=O)c1ccc(C(=O)C2C(=O)CCCC2=O)c(Cl)c1COCC(F)(F)F [crystal form C, 2-[2-chloro-4-methylsulfonyl-3-(2,2,2-trifluoroethoxymethyl)benzoyl]cyclohexane-1,3-dione] |  |  |  | 0.15 | 8.5 (≈ 19.3 mM) | 80.2 (≈ 182 mM) | 0.25 (≈ 0.567 mM) | 
CS(=O)(=O)c1ccc(C(=O)C2C(=O)CCCC2=O)c(Cl)c1COCC(F)(F)F [crystal form D, 2-[2-chloro-4-methylsulfonyl-3-(2,2,2-trifluoroethoxymethyl)benzoyl]cyclohexane-1,3-dione] |  |  |  | 0.06 | 8.2 (≈ 18.6 mM) | 75.7 (≈ 172 mM) | 0.22 (≈ 0.499 mM) | slow
